From ChEMBL document CHEMBL5465560, “Selectivity Literature for EUbOPEN Chemogenomic Library” (2024)

Key:
[1] = target: Ephrin type-A receptor 7 (Homo sapiens) (UniProt Q15375); assay: Selectivity interaction (Ambit KINOMEscan and KiNATiv profiling in Jurkat cells) EUB0000090b EPHA7; format: cell-based; conditions: at 1 µM
[2] = target: Tyrosine-protein kinase receptor Tie-1 (Homo sapiens) (UniProt P35590); assay: Selectivity interaction (KinomeScan (DiscoverX)) EUB0001079a TIE1; conditions: at 1 µM
[3] = target: T1, Ephrin type-B receptor 3 (Homo sapiens) (UniProt P54753); assay: Selectivity interaction (Kinase panel (DSF assay)) EUB0001558a EPHB3
T1 sequence (whole entry): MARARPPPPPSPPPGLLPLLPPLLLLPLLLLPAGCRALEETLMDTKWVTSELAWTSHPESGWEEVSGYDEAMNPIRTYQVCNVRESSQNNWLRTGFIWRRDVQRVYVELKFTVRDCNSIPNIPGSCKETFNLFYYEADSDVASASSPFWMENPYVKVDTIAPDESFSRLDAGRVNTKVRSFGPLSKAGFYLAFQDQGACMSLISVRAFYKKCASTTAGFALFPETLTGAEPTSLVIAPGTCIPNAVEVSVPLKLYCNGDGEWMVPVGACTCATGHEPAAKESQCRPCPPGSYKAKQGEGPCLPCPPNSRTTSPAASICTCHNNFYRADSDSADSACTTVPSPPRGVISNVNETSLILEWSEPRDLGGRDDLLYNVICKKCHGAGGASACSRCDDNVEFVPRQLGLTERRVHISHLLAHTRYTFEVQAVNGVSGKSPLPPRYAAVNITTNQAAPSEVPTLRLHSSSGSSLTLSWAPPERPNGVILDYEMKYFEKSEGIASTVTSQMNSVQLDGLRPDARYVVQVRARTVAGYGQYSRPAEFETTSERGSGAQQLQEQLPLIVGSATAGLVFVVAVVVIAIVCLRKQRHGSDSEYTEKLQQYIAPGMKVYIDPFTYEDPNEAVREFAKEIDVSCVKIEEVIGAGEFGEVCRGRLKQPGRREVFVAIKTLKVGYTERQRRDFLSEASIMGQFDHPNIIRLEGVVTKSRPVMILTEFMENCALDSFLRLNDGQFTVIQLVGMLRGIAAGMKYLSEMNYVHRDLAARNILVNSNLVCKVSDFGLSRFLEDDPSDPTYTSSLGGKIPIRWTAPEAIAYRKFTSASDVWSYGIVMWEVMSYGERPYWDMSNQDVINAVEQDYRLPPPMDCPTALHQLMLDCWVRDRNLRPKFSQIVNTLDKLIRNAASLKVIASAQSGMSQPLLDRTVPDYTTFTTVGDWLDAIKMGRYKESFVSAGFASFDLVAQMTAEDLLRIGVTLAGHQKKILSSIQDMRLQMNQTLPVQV

[4] = target: Interferon-induced, double-stranded RNA-activated protein kinase (Homo sapiens) (UniProt P19525); assay: Selectivity interaction (KinomeScan (DiscoverX)) EUB0000045b EIF2AK2
Sequence of Interferon-induced, double-stranded RNA-activated protein kinase (Homo sapiens) (P19525 whole entry): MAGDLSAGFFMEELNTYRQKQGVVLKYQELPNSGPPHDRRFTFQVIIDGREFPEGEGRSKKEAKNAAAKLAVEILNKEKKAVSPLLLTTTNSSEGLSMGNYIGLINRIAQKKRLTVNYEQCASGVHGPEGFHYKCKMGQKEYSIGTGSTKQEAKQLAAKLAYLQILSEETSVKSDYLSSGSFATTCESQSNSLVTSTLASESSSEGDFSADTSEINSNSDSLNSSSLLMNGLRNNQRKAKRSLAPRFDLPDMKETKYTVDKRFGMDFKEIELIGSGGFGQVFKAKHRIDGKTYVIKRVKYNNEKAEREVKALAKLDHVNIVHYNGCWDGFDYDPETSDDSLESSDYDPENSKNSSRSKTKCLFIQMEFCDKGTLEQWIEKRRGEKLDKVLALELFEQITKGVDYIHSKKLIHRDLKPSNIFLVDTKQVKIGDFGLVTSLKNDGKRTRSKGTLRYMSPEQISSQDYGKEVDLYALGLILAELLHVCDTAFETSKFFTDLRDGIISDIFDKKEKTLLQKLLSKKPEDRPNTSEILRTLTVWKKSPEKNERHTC

[5] = target: Serine/threonine-protein kinase N1 (Homo sapiens, UniProt Q16512); assay: Selectivity interaction (KinomeScan (DiscoverX)) EUB0000045b PKN1
Sequence of Serine/threonine-protein kinase N1 (Q16512 2-942 limits assumed): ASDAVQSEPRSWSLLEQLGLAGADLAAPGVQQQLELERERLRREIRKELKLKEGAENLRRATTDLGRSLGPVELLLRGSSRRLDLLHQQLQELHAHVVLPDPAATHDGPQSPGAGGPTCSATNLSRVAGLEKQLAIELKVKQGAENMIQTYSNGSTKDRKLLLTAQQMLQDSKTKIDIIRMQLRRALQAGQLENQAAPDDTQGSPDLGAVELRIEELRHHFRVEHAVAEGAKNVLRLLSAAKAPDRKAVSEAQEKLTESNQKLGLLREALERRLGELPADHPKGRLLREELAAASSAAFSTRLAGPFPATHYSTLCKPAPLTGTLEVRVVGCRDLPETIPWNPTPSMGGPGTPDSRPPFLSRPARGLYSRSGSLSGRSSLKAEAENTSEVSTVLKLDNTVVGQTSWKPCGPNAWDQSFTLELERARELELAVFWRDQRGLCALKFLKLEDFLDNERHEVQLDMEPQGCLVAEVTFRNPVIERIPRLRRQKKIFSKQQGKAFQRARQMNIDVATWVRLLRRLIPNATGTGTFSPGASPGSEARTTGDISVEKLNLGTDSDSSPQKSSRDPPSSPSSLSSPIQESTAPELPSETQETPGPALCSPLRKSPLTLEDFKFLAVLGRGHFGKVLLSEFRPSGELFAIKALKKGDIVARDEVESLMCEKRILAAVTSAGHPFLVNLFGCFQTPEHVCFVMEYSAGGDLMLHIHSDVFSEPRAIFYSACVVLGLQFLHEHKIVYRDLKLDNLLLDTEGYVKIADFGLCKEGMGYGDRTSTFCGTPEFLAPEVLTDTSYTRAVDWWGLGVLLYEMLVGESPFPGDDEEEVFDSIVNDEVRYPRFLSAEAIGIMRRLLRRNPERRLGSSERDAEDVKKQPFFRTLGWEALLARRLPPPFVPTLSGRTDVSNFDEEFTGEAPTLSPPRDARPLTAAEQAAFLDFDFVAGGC

[6] = target: Mitogen-activated protein kinase kinase kinase 11 (Homo sapiens) (UniProt Q16584); assay: Selectivity interaction (ActivX KiNativ screen (kinase selectivity in THP-1 cell lysates)) EUB0000639a MAP3K11; format: subcellular; conditions: lysate, at 0.2 µM
Sequence of Mitogen-activated protein kinase kinase kinase 11 (Homo sapiens) (Q16584 whole entry, looked up): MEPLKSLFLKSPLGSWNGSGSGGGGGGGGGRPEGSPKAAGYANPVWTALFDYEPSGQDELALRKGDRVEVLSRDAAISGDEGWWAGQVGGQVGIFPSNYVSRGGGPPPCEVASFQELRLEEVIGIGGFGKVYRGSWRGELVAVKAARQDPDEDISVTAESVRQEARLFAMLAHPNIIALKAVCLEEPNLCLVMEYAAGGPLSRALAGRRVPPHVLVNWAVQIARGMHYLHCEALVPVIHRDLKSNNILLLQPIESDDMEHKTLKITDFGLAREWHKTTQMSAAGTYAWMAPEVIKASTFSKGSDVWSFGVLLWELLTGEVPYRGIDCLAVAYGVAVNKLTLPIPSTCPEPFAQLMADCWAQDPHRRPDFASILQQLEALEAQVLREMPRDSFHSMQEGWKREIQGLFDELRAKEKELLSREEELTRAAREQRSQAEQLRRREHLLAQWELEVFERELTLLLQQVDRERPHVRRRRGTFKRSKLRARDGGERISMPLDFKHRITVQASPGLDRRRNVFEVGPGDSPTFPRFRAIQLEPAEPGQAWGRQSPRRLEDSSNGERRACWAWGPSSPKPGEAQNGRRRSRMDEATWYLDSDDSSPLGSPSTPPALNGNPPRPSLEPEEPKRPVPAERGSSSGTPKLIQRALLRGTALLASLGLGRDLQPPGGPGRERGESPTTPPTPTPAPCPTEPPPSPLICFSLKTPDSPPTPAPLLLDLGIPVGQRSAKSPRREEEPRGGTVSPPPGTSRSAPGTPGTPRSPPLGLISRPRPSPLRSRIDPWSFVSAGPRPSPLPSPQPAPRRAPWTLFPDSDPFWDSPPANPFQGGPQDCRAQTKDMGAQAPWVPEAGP

[7] = target: Tyrosine-protein kinase HCK (Homo sapiens) (UniProt P08631); assay: Selectivity interaction (ActivX KiNativ screen (kinase selectivity in THP-1 cell lysates)) EUB0000639a HCK; format: subcellular; conditions: lysate, at 0.04 µM
Sequence of Tyrosine-protein kinase HCK (Homo sapiens) (P08631 2-526 limits assumed): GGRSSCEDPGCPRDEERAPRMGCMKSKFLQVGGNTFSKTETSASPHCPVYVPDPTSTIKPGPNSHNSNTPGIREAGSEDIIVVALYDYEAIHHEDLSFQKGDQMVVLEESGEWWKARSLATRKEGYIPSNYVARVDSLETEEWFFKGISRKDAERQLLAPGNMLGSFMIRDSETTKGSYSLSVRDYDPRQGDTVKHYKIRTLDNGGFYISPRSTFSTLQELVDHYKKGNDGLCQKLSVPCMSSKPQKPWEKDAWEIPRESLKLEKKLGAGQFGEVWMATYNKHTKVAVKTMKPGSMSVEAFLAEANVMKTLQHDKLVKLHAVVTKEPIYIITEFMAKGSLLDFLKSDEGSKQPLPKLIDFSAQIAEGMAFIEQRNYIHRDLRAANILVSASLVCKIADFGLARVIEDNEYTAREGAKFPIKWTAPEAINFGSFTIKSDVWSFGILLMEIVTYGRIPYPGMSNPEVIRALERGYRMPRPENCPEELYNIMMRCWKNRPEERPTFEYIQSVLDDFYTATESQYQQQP

[8] = target: Transcription initiation factor TFIID subunit 1-like (Homo sapiens) (UniProt Q8IZX4); assay: Selectivity interaction (Bromodomain panel (DSF asssay)) EUB0000270b TAF1L
Sequence of Transcription initiation factor TFIID subunit 1-like (Homo sapiens) (Q8IZX4 whole entry): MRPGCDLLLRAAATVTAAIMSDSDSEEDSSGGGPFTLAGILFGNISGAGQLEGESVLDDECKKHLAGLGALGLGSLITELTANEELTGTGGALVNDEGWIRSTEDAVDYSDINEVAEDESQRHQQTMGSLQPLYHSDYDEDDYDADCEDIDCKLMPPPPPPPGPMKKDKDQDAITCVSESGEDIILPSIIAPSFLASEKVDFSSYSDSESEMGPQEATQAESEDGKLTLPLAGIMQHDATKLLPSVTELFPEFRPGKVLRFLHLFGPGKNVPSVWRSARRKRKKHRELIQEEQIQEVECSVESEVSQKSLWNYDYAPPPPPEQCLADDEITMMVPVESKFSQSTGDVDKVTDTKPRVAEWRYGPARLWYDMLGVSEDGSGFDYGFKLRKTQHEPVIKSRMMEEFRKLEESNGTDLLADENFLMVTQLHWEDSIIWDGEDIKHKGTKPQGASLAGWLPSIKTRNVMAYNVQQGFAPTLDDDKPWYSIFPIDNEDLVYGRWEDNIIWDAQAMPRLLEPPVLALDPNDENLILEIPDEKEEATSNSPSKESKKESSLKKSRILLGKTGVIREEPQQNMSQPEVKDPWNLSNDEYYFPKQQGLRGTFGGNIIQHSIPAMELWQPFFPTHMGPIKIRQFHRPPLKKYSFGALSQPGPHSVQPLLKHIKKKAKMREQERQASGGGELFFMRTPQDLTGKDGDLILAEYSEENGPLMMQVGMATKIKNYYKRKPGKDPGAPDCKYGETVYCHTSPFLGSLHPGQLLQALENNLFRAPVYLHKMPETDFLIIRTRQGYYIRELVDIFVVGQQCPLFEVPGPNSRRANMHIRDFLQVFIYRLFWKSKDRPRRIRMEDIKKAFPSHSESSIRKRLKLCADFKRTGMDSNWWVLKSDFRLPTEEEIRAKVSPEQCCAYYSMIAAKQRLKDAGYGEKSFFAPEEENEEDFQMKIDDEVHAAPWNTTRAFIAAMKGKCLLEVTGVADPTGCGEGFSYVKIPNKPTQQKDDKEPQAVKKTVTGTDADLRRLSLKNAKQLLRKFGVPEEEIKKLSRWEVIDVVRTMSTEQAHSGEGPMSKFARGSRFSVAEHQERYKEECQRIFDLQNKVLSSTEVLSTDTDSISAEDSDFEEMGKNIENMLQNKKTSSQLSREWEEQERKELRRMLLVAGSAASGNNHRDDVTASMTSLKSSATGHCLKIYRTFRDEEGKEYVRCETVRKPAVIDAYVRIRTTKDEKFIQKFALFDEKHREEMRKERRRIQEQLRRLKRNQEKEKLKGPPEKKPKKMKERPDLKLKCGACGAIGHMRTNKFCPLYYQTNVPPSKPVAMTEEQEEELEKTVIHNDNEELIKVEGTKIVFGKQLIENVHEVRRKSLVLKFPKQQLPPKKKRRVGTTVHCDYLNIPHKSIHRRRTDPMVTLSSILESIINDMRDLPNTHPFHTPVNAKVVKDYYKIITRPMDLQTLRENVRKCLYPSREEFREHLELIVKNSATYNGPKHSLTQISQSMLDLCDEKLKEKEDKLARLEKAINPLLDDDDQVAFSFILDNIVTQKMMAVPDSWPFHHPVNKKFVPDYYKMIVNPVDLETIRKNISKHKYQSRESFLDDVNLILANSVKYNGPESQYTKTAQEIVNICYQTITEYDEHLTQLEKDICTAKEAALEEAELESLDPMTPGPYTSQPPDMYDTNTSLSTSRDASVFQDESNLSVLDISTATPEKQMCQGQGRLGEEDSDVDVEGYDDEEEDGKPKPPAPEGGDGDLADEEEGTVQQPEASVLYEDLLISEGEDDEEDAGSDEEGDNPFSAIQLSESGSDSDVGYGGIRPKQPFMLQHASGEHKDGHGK

[9] = target: T2, Serine/threonine-protein kinase 3 (Homo sapiens) (UniProt Q13188); assay: Selectivity interaction (KinomeScan (DiscoverX)) EUB0001049a STK3; conditions: at 1 µM
T2 sequence (whole entry): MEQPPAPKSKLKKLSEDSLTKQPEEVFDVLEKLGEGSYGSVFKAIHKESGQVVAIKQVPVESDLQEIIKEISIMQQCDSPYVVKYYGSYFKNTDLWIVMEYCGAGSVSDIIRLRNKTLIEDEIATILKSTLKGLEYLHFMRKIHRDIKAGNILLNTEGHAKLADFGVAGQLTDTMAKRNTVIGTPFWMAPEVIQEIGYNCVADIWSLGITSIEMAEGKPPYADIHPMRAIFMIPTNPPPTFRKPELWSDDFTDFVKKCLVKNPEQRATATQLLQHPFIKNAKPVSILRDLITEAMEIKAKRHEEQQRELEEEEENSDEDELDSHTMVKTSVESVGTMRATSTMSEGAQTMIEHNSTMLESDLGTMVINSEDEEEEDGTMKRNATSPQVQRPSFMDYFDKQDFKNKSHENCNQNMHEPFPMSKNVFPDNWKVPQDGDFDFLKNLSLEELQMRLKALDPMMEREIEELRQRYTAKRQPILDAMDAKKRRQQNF

[10] = target: T3, Serine/threonine-protein kinase D3 (Homo sapiens) (UniProt O94806); assay: Selectivity interaction (Kinase screening (Nanosyn)) EUB0000604a PRKD3
T3 sequence (whole entry): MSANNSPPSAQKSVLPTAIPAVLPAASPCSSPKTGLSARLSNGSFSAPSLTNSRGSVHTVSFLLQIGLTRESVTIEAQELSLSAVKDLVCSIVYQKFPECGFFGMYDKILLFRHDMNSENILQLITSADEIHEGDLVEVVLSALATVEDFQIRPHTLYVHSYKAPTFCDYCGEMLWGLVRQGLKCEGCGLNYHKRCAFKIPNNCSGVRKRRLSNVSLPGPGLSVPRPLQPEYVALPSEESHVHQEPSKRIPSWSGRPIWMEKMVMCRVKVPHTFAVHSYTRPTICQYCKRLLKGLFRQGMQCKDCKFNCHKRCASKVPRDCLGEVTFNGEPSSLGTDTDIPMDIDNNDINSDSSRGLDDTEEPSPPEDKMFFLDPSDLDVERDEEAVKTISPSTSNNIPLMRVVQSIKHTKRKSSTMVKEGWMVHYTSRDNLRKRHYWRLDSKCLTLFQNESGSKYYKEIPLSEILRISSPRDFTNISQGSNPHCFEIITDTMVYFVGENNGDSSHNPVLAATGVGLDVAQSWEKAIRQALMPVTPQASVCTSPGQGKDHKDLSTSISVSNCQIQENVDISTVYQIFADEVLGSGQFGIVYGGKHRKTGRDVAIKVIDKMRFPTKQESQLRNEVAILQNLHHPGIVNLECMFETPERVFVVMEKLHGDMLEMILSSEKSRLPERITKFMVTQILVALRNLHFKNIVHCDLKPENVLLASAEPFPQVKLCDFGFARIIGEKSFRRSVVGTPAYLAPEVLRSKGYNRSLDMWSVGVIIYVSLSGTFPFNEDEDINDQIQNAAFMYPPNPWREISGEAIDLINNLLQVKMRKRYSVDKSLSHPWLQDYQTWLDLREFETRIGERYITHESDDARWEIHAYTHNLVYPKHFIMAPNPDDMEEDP

Q: Which % of control [1] does the source give for CN(C)C/C=C/C(=O)Nc1ccc(C(=O)N2CCCC(Nc3ncc(Cl)c(-c4c[nH]c5ccccc45)n3)C2)cc1 (configuration not stated) here?
A: Its % of control is 93%.

Q: For Nc1cnc(N2CCc3cc(S(=O)(=O)Nc4c(F)cc(Cl)cc4F)cc(N4CCCC4=O)c32)nc1 [TP-020n], which % of control [2] is on record?
A: Its % of control is 100%.

Q: How did the dTM [3] turn out when CC(C)(O)[C@H](F)CN1Cc2cc(NC(=O)c3cnn4cccnc34)c(N3CCOCC3)cc2C1=O was run?
A: Its dTM is 2.1 K.

Q: Which % of control ([4]; at 1 µM) does the source give for C=CC(=O)Nc1cc(-n2c(=O)ccc3cnc4ccc(-c5ccc(NS(C)(=O)=O)cc5)cc4c32)ccc1C here?
A: The % of control was 100%.

Q: What about the % of control ([4]; at 10 µM) of the same compound?
A: Its % of control is 71%.

Q: And the % of control ([5]; at 1 µM)?
A: Its % of control is 100%.

Q: And the % of control ([5]; at 10 µM)?
A: The % of control was 99%.

Q: How did the % of inhibition [6] turn out when CC[C@@H]1[C@H](F)C(=O)N[C@@H]1COc1nccc2cc(C(N)=O)c(OC)cc12 [ZIMLOVISERTIB] was run?
A: Its % of inhibition is -15.6%.

Q: And the % of inhibition [7]?
A: Its % of inhibition is -8.7%.

Q: How did the dTM [8] turn out when Cc1cc(CN)cc(C)c1-c1ncn(C)c1-c1cncn1C was run?
A: The dTM was -1.79 K.

Q: COc1cc(Nc2nc(C)cc(-c3cnn4nc(OC)ccc34)n2)cc(C(F)(F)F)c1 was tested. Which % of control [9] did it give?
A: Its % of control is 100%.

Q: Which % of inhibition [10] does the source give for Cc1cnc(Nc2ccc(F)cc2Cl)nc1-c1c[nH]c(C(=O)N[C@H](CO)c2cccc(Cl)c2)c1 here?
A: Its % of inhibition is 21%.
